This passage reports Kd results from ChEMBL document CHEMBL1127798, “Structure-activity relationships and pH dependence of binding of 8-alkyl-N5-deazapterins to dihydrofolate reductase” (J Med Chem, 1994).

Assay [1] addresses T1, Dihydrofolate reductase (Homo sapiens, UniProt P00374).
T1 sequence (P00374 whole entry): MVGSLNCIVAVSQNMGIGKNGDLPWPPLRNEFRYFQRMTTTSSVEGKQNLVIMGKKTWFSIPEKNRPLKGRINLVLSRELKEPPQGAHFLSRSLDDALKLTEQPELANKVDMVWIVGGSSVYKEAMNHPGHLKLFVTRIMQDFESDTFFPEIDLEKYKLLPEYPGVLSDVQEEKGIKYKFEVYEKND
Kind of assay: Apparent dissociation constant at pH 6.6 for human dihydrofolate reductase in the absence of cofactor NADPH.

The target of assay [2] is T1, Dihydrofolate reductase. Kind of assay: Apparent dissociation constant at pH 6.6 for human dihydrofolate reductase in the presence of cofactor NADPH.
The target in assay [3] is T1, Dihydrofolate reductase. In words: Tested for the apparent dissociation constant for binding of compound to binary NADPH complex with human dihydrofolate reductase using equation 4.
Assay [4] has as its target T1, Dihydrofolate reductase. In words: Tested for the apparent dissociation constant for binding of compound to ternary NADPH complex with human dihydrofolate reductase using equations 15 and 16.
In assay [5] the target is T1, Dihydrofolate reductase. In words: Tested for the apparent dissociation constant for binding of compound to binary NADPH complex with human dihydrofolate reductase using equations 11 and 12.
The target in assay [6] is T1, Dihydrofolate reductase. Kind of assay: Tested for the apparent dissociation constant for binding of compound to ternary NADPH complex with human dihydrofolate reductase using equation 4.
The target in assay [7] is T1, Dihydrofolate reductase. Kind of assay: Tested for the apparent dissociation constant for binding of compound to binary NADPH complex with human dihydrofolate reductase using equation 11.
Assay [8] concerns the target T1, Dihydrofolate reductase. Kind of assay: Tested for the apparent dissociation constant for binding of compound to binary NADPH complex with human dihydrofolate reductase using equation 16.
For assay [9], the target named is T1, Dihydrofolate reductase. In words: Tested for the apparent dissociation constant for binding of compound to ternary NADPH complex with human dihydrofolate reductase using equation 11.

Take `CCCN1C=C(C)C=C2C(=O)NC(N)N=C21` (stereo unspecified): the Kd in assay [1] worked out at 108000 nM; in [2], 4600 nM.
Taken in the same sequence, the figures for `CC1=CN(C)C2=NC(N)NC(=O)C2=C1` (stereo unspecified) were 31000 nM and 500 nM.
Turning to `CCCN1C(C)=CC=C2C(=O)NC(N)N=C21` (stereo unspecified), the Kd worked out at 0.5 nM in assay [3]; 3400 nM in assay [1]; 2000 nM in assay [2]; 1000 nM in [4]; 1200 nM in [5]; 0.6 nM in assay [6]. In addition, the Kd in [7] amounted to 2700 nM; in assay [8], 2800 nM; in assay [9] it was 450 nM.
With `CC1=CC=C2C(=O)NC(N)N=C2N1C` (stereo unspecified), the Kd in [1] came out at 21000 nM; in [2] it was 2900 nM.
Consider `CCCN1C=CC=C2C(=O)NC(N)N=C21` (stereo unspecified), for which the Kd in assay [3] was 20.7 nM; in assay [1] it was 12000 nM; in assay [2], 4000 nM; in [4] it was 1700 nM; in assay [5], 5800 nM; in [6], 2.6 nM. In addition, the Kd amounted to 6500 nM in assay [7], 2100 nM in assay [8] and 830 nM in assay [9].
As for `CC(C)N1C=CC=C2C(=O)NC(N)N=C21` (stereo unspecified), the Kd in assay [1] is 34000 nM; in [2] it was 1900 nM.
Taken in the same sequence, the figures for `CC1=C2C(=O)NC(N)N=C2N(C)C=C1` (stereo unspecified) were 21000 nM and 5100 nM.
Turning to `CC1=C2C(=O)NC(N)N=C2N(CCC(C)C)C=C1` (stereo unspecified), the Kd in [1] worked out at 1800 nM; in assay [2], 700 nM.
In the same order, the values of `CC(C)CN1C=CC=C2C(=O)NC(N)N=C21` (stereo unspecified) are 2200 nM and 600 nM.
In the same order, the values of `CCN1C=CC=C2C(=O)NC(N)N=C21` (stereo unspecified) are 60000 nM and 13000 nM.
In the same order, the values of `NC1N=C2C(=CC=CN2Cc2ccccc2)C(=O)N1` (stereo unspecified) are 1700 nM and 700 nM.
As for `CC1=CN(C(C)C)C2=NC(N)NC(=O)C2=C1` (stereo unspecified), the Kd was 60000 nM in [1] and 18000 nM in assay [2].
Taken in the same sequence, the figures for `CCN1C=C(C)C=C2C(=O)NC(N)N=C21` (stereo unspecified) were 130000 nM and 16000 nM.
As to `CC1=C2C(=O)NC(N)N=C2N(CC(C)C)C=C1` (stereo unspecified), the Kd in [3] was 0.2 nM; in assay [1] it was 2400 nM; in [2] it was 80 nM; in assay [4], 57 nM; in [5], 2600 nM; in [6], 0.1 nM. Further, the Kd in assay [7] came out at 3000 nM; in [8], 2200 nM; in [9], 30 nM.
Take `CN1C=CC=C2C(=O)NC(N)N=C21` (stereo unspecified): the Kd in assay [1] was 118000 nM; in [2], 21000 nM.
